Measurements from ChEMBL document CHEMBL1151508, “Preparation and activities of 4-epi and 4-deoxy-4-amino analogs derived from 9-deoxo-8a-aza-8a-homoerythromycin A” (1994).
In brackets after ≈: the same amount, converted by molar mass.

Experiments:
Type in all cases: functional
[1] = system: Escherichia coli; test: In vitro minimum inhibitory concentration against Escherichia coli MB2884.
[2] = system: Haemophilus influenzae; test: In vitro minimum inhibitory concentration against Haemophilus influenzae MB5363.
[3] = system: Klebsiella pneumoniae; test: In vitro minimum inhibitory concentration against Klebsiella pneumoniae MB4005.
[4] = system: Streptococcus pneumoniae; test: In vitro minimum inhibitory concentration against Streptococcus pneumoniae CL2883.
[5] = system: Staphylococcus aureus; test: In vitro minimum inhibitory concentration against Staphylococcus aureus MB2865.
[6] = system: Enterococcus faecalis; test: In vitro minimum inhibitory concentration against Enterococcus faecalis MB5407.

MIC [1]	MIC [2]	MIC [3]	MIC [4]	MIC [5]	MIC [6]	Structure (SMILES)
4 µg/mL (≈ 3.92 µM)	4 µg/mL (≈ 3.92 µM)	4 µg/mL (≈ 3.92 µM)	0.13 µg/mL (≈ 0.127 µM)	4 µg/mL (≈ 3.92 µM)	2 µg/mL (≈ 1.96 µM)	CC[C@H]1OC(=O)[C@H](C)[C@@H](O[C@H]2C[C@@](C)(OC)[C@@H](n3cccc3)[C@H](C)O2)[C@H](C)[C@@H](O[C@@H]2O[C@H](C)C[C@H](N(C)C)[C@H]2OC(=O)OCC2c3ccccc3-c3ccccc32)[C@](C)(O)C[C@@H](C)N(C)C[C@H](C)[C@@H](O)[C@]1(C)O
0.13 µg/mL (≈ 0.134 µM)	0.25 µg/mL (≈ 0.258 µM)	0.13 µg/mL (≈ 0.134 µM)	0.06 µg/mL (≈ 0.0618 µM)	1 µg/mL (≈ 1.03 µM)	2 µg/mL (≈ 2.06 µM)	CC[C@H]1OC(=O)[C@H](C)[C@@H](O[C@H]2C[C@@](C)(OC)[C@@H](N)[C@H](C)O2)[C@H](C)[C@@H](O[C@@H]2O[C@H](C)C[C@H](N(C)C)[C@H]2OC(=O)OCC2c3ccccc3-c3ccccc32)[C@](C)(O)C[C@@H](C)N(C)C[C@H](C)[C@@H](O)[C@]1(C)O
1 µg/mL (≈ 1.34 µM)	1 µg/mL (≈ 1.34 µM)	1 µg/mL (≈ 1.34 µM)	0.03 µg/mL (≈ 0.0401 µM)	0.5 µg/mL (≈ 0.668 µM)	2 µg/mL (≈ 2.67 µM)	CC[C@H]1OC(=O)[C@H](C)[C@@H](O[C@H]2C[C@@](C)(OC)[C@@H](O)[C@H](C)O2)[C@H](C)[C@@H](O[C@@H]2O[C@H](C)C[C@H](N(C)C)[C@H]2O)[C@](C)(O)C[C@@H](C)N(C)C[C@H](C)[C@@H](O)[C@]1(C)O [L-701677]
2 µg/mL (≈ 1.98 µM)	8 µg/mL (≈ 7.9 µM)	2 µg/mL (≈ 1.98 µM)	0.25 µg/mL (≈ 0.247 µM)	2 µg/mL (≈ 1.98 µM)	8 µg/mL (≈ 7.9 µM)	CC[C@H]1OC(=O)[C@H](C)[C@@H](O[C@H]2C[C@@](C)(OC)[C@@H](NC(C)=O)[C@H](C)O2)[C@H](C)[C@@H](O[C@@H]2O[C@H](C)C[C@H](N(C)C)[C@H]2OC(=O)OCC2c3ccccc3-c3ccccc32)[C@](C)(O)C[C@@H](C)N(C)C[C@H](C)[C@@H](O)[C@]1(C)O
1 µg/mL (≈ 1 µM)	2 µg/mL (≈ 2 µM)	2 µg/mL (≈ 2 µM)	0.5 µg/mL (≈ 0.501 µM)	8 µg/mL (≈ 8.01 µM)	8 µg/mL (≈ 8.01 µM)	CC[C@H]1OC(=O)[C@H](C)[C@@H](O[C@H]2C[C@@](C)(OC)[C@@H](N(C)C)[C@H](C)O2)[C@H](C)[C@@H](O[C@@H]2O[C@H](C)C[C@H](N(C)C)[C@H]2OC(=O)OCC2c3ccccc3-c3ccccc32)[C@](C)(O)C[C@@H](C)N(C)C[C@H](C)[C@@H](O)[C@]1(C)O
0.5 µg/mL (≈ 0.646 µM)	0.5 µg/mL (≈ 0.646 µM)	0.25 µg/mL (≈ 0.323 µM)	0.06 µg/mL (≈ 0.0775 µM)	2 µg/mL (≈ 2.58 µM)	4 µg/mL (≈ 5.17 µM)	C=CCN1C[C@H](C)[C@@H](O)[C@](C)(O)[C@@H](CC)OC(=O)[C@H](C)[C@@H](O[C@H]2C[C@@](C)(OC)C(N)[C@H](C)O2)[C@H](C)[C@@H](O[C@@H]2O[C@H](C)C[C@H](N(C)C)[C@H]2O)[C@](C)(O)C[C@H]1C (some centres undefined)
0.5 µg/mL (≈ 0.502 µM)	0.5 µg/mL (≈ 0.502 µM)	0.25 µg/mL (≈ 0.251 µM)	0.03 µg/mL (≈ 0.0301 µM)	1 µg/mL (≈ 1 µM)	2 µg/mL (≈ 2.01 µM)	C=CCN1C[C@H](C)[C@@H](O)[C@](C)(O)[C@@H](CC)OC(=O)[C@H](C)[C@@H](O[C@H]2C[C@@](C)(OC)[C@H](N)[C@H](C)O2)[C@H](C)[C@@H](O[C@@H]2O[C@H](C)C[C@H](N(C)C)[C@H]2OC(=O)OCC2c3ccccc3-c3ccccc32)[C@](C)(O)C[C@H]1C
0.25 µg/mL (≈ 0.258 µM)	0.5 µg/mL (≈ 0.515 µM)	0.25 µg/mL (≈ 0.258 µM)	0.06 µg/mL (≈ 0.0618 µM)	1 µg/mL (≈ 1.03 µM)	2 µg/mL (≈ 2.06 µM)	CC[C@H]1OC(=O)[C@H](C)[C@@H](O[C@H]2C[C@@](C)(OC)[C@H](N)[C@H](C)O2)[C@H](C)[C@@H](O[C@@H]2O[C@H](C)C[C@H](N(C)C)[C@H]2OC(=O)OCC2c3ccccc3-c3ccccc32)[C@](C)(O)C[C@@H](C)N(C)C[C@H](C)[C@@H](O)[C@]1(C)O
0.5 µg/mL (≈ 0.644 µM)	0.5 µg/mL (≈ 0.644 µM)	0.5 µg/mL (≈ 0.644 µM)	0.06 µg/mL (≈ 0.0773 µM)	1 µg/mL (≈ 1.29 µM)	2 µg/mL (≈ 2.58 µM)	CCCN1C[C@H](C)[C@@H](O)[C@](C)(O)[C@@H](CC)OC(=O)[C@H](C)[C@@H](O[C@H]2C[C@@](C)(OC)C(N)[C@H](C)O2)[C@H](C)[C@@H](O[C@@H]2O[C@H](C)C[C@H](N(C)C)[C@H]2O)[C@](C)(O)C[C@H]1C (some centres undefined)
0.5 µg/mL (≈ 0.501 µM)	2 µg/mL (≈ 2 µM)	2 µg/mL (≈ 2 µM)	0.5 µg/mL (≈ 0.501 µM)	32 µg/mL (≈ 32.1 µM)	16 µg/mL (≈ 16 µM)	CC[C@H]1OC(=O)[C@H](C)[C@@H](O[C@H]2C[C@@](C)(OC)[C@H](N(C)C)[C@H](C)O2)[C@H](C)[C@@H](O[C@@H]2O[C@H](C)C[C@H](N(C)C)[C@H]2OC(=O)OCC2c3ccccc3-c3ccccc32)[C@](C)(O)C[C@@H](C)N(C)C[C@H](C)[C@@H](O)[C@]1(C)O
1 µg/mL (≈ 1.34 µM)	1 µg/mL (≈ 1.34 µM)	4 µg/mL (≈ 5.34 µM)	0.06 µg/mL (≈ 0.0801 µM)	0.5 µg/mL (≈ 0.668 µM)	1 µg/mL (≈ 1.34 µM)	CC[C@H]1OC(=O)[C@H](C)[C@@H](O[C@H]2C[C@@](C)(OC)[C@H](O)[C@H](C)O2)[C@H](C)[C@@H](O[C@@H]2O[C@H](C)C[C@H](N(C)C)[C@H]2O)[C@](C)(O)C[C@@H](C)N(C)C[C@H](C)[C@@H](O)[C@]1(C)O
0.25 µg/mL (≈ 0.249 µM)	1 µg/mL (≈ 0.998 µM)	0.13 µg/mL (≈ 0.13 µM)	0.03 µg/mL (≈ 0.0299 µM)	0.5 µg/mL (≈ 0.499 µM)	2 µg/mL (≈ 2 µM)	CC[C@H]1OC(=O)[C@H](C)[C@@H](O[C@H]2C[C@@](C)(OC)[C@@H](N)[C@H](C)O2)[C@H](C)[C@@H](O[C@@H]2O[C@H](C)C[C@H](N(C)C)[C@H]2OC(=O)OCC2c3ccccc3-c3ccccc32)[C@](C)(O)C[C@@H](C)N(CCF)C[C@H](C)[C@@H](O)[C@]1(C)O
0.25 µg/mL (≈ 0.251 µM)	1 µg/mL (≈ 1 µM)	0.13 µg/mL (≈ 0.13 µM)	0.03 µg/mL (≈ 0.0301 µM)	1 µg/mL (≈ 1 µM)	4 µg/mL (≈ 4.01 µM)	C=CCN1C[C@H](C)[C@@H](O)[C@](C)(O)[C@@H](CC)OC(=O)[C@H](C)[C@@H](O[C@H]2C[C@@](C)(OC)[C@@H](N)[C@H](C)O2)[C@H](C)[C@@H](O[C@@H]2O[C@H](C)C[C@H](N(C)C)[C@H]2OC(=O)OCC2c3ccccc3-c3ccccc32)[C@](C)(O)C[C@H]1C
0.25 µg/mL (≈ 0.334 µM)	1 µg/mL (≈ 1.34 µM)	0.13 µg/mL (≈ 0.174 µM)	0.03 µg/mL (≈ 0.0401 µM)	2 µg/mL (≈ 2.67 µM)	4 µg/mL (≈ 5.35 µM)	CC[C@H]1OC(=O)[C@H](C)[C@@H](O[C@H]2C[C@@](C)(OC)C(N)[C@H](C)O2)[C@H](C)[C@@H](O[C@@H]2O[C@H](C)C[C@H](N(C)C)[C@H]2O)[C@](C)(O)C[C@@H](C)N(C)C[C@H](C)[C@@H](O)[C@]1(C)O (some centres undefined)
4 µg/mL (≈ 3.92 µM)	16 µg/mL (≈ 15.7 µM)	8 µg/mL (≈ 7.84 µM)	0.25 µg/mL (≈ 0.245 µM)	8 µg/mL (≈ 7.84 µM)	4 µg/mL (≈ 3.92 µM)	CC[C@H]1OC(=O)[C@H](C)[C@@H](O[C@H]2C[C@@](C)(OC)[C@H](n3cccc3)[C@H](C)O2)[C@H](C)[C@@H](O[C@@H]2O[C@H](C)C[C@H](N(C)C)[C@H]2OC(=O)OCC2c3ccccc3-c3ccccc32)[C@](C)(O)C[C@@H](C)N(C)C[C@H](C)[C@@H](O)[C@]1(C)O
1 µg/mL (≈ 0.988 µM)	4 µg/mL (≈ 3.95 µM)	4 µg/mL (≈ 3.95 µM)	0.5 µg/mL (≈ 0.494 µM)	16 µg/mL (≈ 15.8 µM)	8 µg/mL (≈ 7.9 µM)	CC[C@H]1OC(=O)[C@H](C)[C@@H](O[C@H]2C[C@@](C)(OC)[C@H](NC(C)=O)[C@H](C)O2)[C@H](C)[C@@H](O[C@@H]2O[C@H](C)C[C@H](N(C)C)[C@H]2OC(=O)OCC2c3ccccc3-c3ccccc32)[C@](C)(O)C[C@@H](C)N(C)C[C@H](C)[C@@H](O)[C@]1(C)O
0.25 µg/mL (≈ 0.249 µM)	0.5 µg/mL (≈ 0.499 µM)	0.13 µg/mL (≈ 0.13 µM)	0.03 µg/mL (≈ 0.0299 µM)	0.25 µg/mL (≈ 0.249 µM)	1 µg/mL (≈ 0.998 µM)	CC[C@H]1OC(=O)[C@H](C)[C@@H](O[C@H]2C[C@@](C)(OC)[C@H](N)[C@H](C)O2)[C@H](C)[C@@H](O[C@@H]2O[C@H](C)C[C@H](N(C)C)[C@H]2OC(=O)OCC2c3ccccc3-c3ccccc32)[C@](C)(O)C[C@@H](C)N(CCF)C[C@H](C)[C@@H](O)[C@]1(C)O

Structure (SMILES)	MIC [1]	MIC [2]	MIC [3]	MIC [4]	MIC [5]	MIC [6]
CC[C@H]1OC(=O)[C@H](C)[C@@H](O[C@H]2C[C@@](C)(OC)[C@@H](O)[C@H](C)O2)[C@H](C)[C@@H](O[C@@H]2O[C@H](C)C[C@H](N(C)C)[C@H]2O)[C@](C)(O)C[C@@H](C)CN(C)[C@H](C)[C@@H](O)[C@]1(C)O [AZITHROMYCIN]	1 µg/mL (≈ 1.34 µM)	0.5 µg/mL (≈ 0.668 µM)	2 µg/mL (≈ 2.67 µM)	0.03 µg/mL (≈ 0.0401 µM)	1 µg/mL (≈ 1.34 µM)	4 µg/mL (≈ 5.34 µM)
CC[C@H]1OC(=O)[C@H](C)[C@@H](O[C@H]2C[C@@](C)(OC)[C@@H](O)[C@H](C)O2)[C@H](C)[C@@H](O[C@@H]2O[C@H](C)C[C@H](N(C)C)[C@H]2O)[C@](C)(O)C[C@@H](C)C(=O)[C@H](C)[C@@H](O)[C@]1(C)O [ERYTHROMYCIN]	32 µg/mL (≈ 43.6 µM)	2 µg/mL (≈ 2.73 µM)	32 µg/mL (≈ 43.6 µM)	0.02 µg/mL (≈ 0.0273 µM)	0.25 µg/mL (≈ 0.341 µM)	1 µg/mL (≈ 1.36 µM)
